Source: patent US9980979B2, “Compounds and methods for enhancing erythropoiesis” (NATIONAL YANG-MING UNIVERSITY, priority 2008, dated 2018)

Experiments:
[1] = system: erythroid progenitor cells (bone marrow cells); assay: BFU-E assay on bone marrow cells isolated from treated mice of the cisplatin-induced acute renal failure model; format: in vivo, C57BL/6JNarl mice; settings: 10~90 mg/kg/day; cells isolated day 28, cultured 12 days; versus control group; FIG. 11
Protocol: The effects of Compound A treatment on cisplatin-induced acute renal failure animal model were investigated. C57BL/6JNarl mice (8-week-old) were purchased from the National Laboratory Animal Center (NLAC, Taiwan). Cisplatin (Sigma-Aldrich) was dissolved in normal saline (0.9% (w/v) sodium chloride, Sigma-Aldrich) at a concentration of 1 mg/ml, and injected into mice intraperitoneally (i.p.) according to the following schedule: day 1, 7 mg/kg; day 5, 6 mg/kg; and day 9, 6 mg/kg. For cisplatin-untreated normal mice group, normal saline injections of corresponding volumes were given i.p. in parallel. At day 13, serum samples were collected and blood urea nitrogen (BUN) contents were assayed. […]
At the end of the experiments described in EXAMPLE 6 (i.e., day 28), mice were sacrificed, kidney and liver tissues were removed, and bone marrow cells were isolated. […] The reverse-transcribed cDNA samples were analyzed by PCR using ABI GeneAmp™ system 2700 (Applied Biosystems) and the SYBR Green Master Mix kit (Applied Biosystems) using primers targeting toward mouse glyceraldehyde 3-phosphate dehydrogenase (GAPDH) (SEQ ID NOs: 5 and 6), erythropoietin (Epo) (SEQ ID NOs: 3 and 4) and hepatocyte growth factor (HGF) (SEQ ID NOs: 7 and 8) (Table 1). Results were expressed as relative index±S.E. (n=5˜6). […]

erythropoietin (Epo) = assay: Epo expression in kidney slices (RT-PCR); format: cell-based, mouse; settings: 0.6-100 μg/ml, 16 hr, versus 0 μg/ml, FIG. 3
Protocol: C57BL/6JNarl mice, 8-10 weeks of age, were purchased from the National Laboratory Animal Center (NLAC, Taiwan). The kidney slices of mice were prepared as previously described with modifications (Parrish et al., 1995, Obatomi et al., 1998 and De Kanter et al., 1999). Briefly, mice were sacrificed by cervical dislocation and the kidneys were excised and immediately kept in gassed (95% O2 and 5% CO2) ice-cold sterile Krebs-HEPES buffer (pH 7.4) containing 20 mM HEPES (USB), 128 mM sodium chloride (Sigma-Aldrich), 2.5 mM potassium chloride (Sigma-Aldrich), 2.7 mM calcium chloride (Sigma-Aldrich), 1 mM magnesium chloride (Sigma-Aldrich) and 16 mM D-glucose (Sigma-Aldrich). […]
Kidney slices were preincubated in a 24-well plate (Falcon) containing 1.0 ml/well of gassed (95% O2, 5% CO2) fresh media (DMEM/F12 (Gibco/Invitrogen) containing 15 mM HEPES (USB), 20 mM sodium bicarbonate (Sigma-Aldrich)) and 5% (v/v) FBS (Gibco) for 90˜120 min at 37° C. in a 95% O2: 5% CO2 atmosphere chamber. […] The reverse-transcribed cDNA samples were analyzed by polymerase chain reaction (PCR) using ABI GeneAmp™ system 2700 (Applied Biosystems) with primers targeting toward mouse β-actin (SEQ ID NOs: 1 and 2) and erythropoietin (Epo) (SEQ ID NOs: 3 and 4) (Table 1). Results were compared with control group (0 μg/ml) and expressed as relative index.

[2] = comparison with 3,4′,5-trihydroxy-trans-stilbene (data not shown)

OC[C@H]1O[C@@H](Oc2c(O)cc(O)cc2/C=C/c2ccc(O)cc2)[C@H](O)[C@@H](O)[C@@H]1O [Compound A, 2,3,5,4′-tetrahydroxystilbene 2-O-β-D-glucopyranoside]
number of BFU-E colonies of bone marrow cells (relative index) [1]: significantly increased the number of BFU-E colonies | expression of Epo in kidney tissue (relative index) (erythropoietin (Epo)): increased the expression of Epo in kidney tissue | enhancing renal functions and improving anemia, compared with 3,4′,5-trihydroxy-trans-stilbene ([2]; data not shown): superior to 3,4′,5-trihydroxy-trans-stilbene | enhancing erythropoiesis and kidney functions, compared with 3,4′,5-trihydroxy-trans-stilbene ([2]; no data shown): superior to 3,4′,5-trihydroxy-trans-stilbene
